Tests used:
[1] = molecular target: Non-receptor tyrosine-protein kinase TYK2 (Homo sapiens, UniProt P29597); experiment: TYK2 (TYK2/JAK2 PSTAT4 T-BLAST) Alpha Screen Assay
Experimental: IL-12 is known to transduce its signal through IL-12 receptor via Jak2 and/or Tyk2. For that reason, the activity against Tyk2/Jak2 was measured by determining the inhibition of IL-12 induced phosphorylation of STAT4 in T-blast cells. […] See, e.g., Sohn et al., J. Immunology (2013) 2205-2216.

[2] = molecular target: Tyrosine-protein kinase JAK1 (Homo sapiens, UniProt P23458); experiment: JAK1 (PSTAT3 TF1) Alpha Screen Assay
Experimental: IL-6 is known to transduce its signal through IL-6 receptor via Jak1. Activity against Jak was therefore measured by determining inhibition of IL-6 induced phosphorylation of STAT3 in TF1 cells. From these tests, the EC50 (effective concentration for 50% maximal response) values were determined in 1 μM for the test compounds.

[3] = molecular target: Tyrosine-protein kinase JAK2 (Homo sapiens, UniProt O60674); experiment: JAK2 (PSTAT5 UT7) Alpha Screen Assay
Experimental: Erythropoietin (EPO) is known to transduce its signal through EPO receptor via Jak2. Activity against Jak2 was therefore measured by determining inhibition of EPO induced phosphorylation of […] in UT7 cells. From these tests, the EC50 (effective concentration for 50% maximal response) values were determined in 1 μM for the test compounds.

Sequence of Tyrosine-protein kinase JAK2 (O60674 whole entry): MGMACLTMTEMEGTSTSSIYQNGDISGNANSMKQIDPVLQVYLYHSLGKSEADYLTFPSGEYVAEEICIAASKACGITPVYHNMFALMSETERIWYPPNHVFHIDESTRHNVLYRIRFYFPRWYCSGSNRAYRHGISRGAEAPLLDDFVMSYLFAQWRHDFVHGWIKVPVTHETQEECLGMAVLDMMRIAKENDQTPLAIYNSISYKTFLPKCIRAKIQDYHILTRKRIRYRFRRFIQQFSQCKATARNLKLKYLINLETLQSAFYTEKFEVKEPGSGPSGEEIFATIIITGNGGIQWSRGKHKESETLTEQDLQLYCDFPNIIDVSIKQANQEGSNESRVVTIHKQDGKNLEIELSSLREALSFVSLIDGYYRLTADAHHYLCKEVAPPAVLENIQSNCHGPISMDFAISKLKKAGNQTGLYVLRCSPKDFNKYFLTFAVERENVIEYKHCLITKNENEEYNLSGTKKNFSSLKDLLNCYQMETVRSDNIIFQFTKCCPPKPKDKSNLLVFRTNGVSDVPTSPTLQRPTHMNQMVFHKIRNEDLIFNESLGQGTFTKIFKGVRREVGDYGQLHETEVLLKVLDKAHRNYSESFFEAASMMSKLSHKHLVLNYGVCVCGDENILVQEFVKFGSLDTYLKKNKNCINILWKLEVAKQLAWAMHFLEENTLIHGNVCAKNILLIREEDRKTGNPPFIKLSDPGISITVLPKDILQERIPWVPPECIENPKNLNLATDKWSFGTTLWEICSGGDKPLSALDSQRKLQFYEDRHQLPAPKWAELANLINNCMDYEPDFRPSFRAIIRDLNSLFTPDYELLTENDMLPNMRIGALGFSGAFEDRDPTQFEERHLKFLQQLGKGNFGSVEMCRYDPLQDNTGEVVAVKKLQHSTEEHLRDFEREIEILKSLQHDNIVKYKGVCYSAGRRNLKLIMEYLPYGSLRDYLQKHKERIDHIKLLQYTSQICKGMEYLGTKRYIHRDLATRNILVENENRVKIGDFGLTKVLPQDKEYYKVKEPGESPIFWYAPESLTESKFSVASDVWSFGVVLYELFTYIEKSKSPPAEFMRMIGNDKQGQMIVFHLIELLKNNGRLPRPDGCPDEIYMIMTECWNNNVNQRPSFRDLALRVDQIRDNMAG
Sequence of Non-receptor tyrosine-protein kinase TYK2 (P29597 whole entry): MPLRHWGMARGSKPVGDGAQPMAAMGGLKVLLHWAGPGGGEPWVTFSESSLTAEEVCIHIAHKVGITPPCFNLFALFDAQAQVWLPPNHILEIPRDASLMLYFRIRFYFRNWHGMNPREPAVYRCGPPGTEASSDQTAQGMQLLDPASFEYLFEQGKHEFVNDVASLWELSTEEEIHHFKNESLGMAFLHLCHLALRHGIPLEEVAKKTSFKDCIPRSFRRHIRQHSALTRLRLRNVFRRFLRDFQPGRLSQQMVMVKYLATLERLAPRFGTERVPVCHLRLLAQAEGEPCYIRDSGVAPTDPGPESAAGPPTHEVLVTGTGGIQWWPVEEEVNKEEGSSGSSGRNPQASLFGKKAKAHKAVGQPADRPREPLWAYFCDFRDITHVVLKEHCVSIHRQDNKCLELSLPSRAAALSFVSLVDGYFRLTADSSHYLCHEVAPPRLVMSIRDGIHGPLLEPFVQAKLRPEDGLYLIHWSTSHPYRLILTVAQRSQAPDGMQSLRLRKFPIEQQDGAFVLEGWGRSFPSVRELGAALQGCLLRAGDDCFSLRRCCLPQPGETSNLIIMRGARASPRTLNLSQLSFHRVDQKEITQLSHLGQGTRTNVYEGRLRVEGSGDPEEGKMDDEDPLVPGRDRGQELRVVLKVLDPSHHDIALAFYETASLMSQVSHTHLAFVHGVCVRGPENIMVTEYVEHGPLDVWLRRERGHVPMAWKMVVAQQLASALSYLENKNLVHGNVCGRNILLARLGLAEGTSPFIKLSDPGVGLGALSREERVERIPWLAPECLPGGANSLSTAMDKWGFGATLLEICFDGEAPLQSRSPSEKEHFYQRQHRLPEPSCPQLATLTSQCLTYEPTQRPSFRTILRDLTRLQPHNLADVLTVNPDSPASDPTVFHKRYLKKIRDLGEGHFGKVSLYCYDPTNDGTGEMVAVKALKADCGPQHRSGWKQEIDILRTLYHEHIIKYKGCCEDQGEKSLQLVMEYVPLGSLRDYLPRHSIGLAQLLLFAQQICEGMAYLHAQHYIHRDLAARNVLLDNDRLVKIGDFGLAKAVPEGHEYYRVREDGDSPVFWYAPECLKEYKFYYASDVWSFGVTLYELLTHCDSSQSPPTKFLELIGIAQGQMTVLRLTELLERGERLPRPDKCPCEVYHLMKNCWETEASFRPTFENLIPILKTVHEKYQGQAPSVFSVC
Sequence of Tyrosine-protein kinase JAK1 (P23458 whole entry): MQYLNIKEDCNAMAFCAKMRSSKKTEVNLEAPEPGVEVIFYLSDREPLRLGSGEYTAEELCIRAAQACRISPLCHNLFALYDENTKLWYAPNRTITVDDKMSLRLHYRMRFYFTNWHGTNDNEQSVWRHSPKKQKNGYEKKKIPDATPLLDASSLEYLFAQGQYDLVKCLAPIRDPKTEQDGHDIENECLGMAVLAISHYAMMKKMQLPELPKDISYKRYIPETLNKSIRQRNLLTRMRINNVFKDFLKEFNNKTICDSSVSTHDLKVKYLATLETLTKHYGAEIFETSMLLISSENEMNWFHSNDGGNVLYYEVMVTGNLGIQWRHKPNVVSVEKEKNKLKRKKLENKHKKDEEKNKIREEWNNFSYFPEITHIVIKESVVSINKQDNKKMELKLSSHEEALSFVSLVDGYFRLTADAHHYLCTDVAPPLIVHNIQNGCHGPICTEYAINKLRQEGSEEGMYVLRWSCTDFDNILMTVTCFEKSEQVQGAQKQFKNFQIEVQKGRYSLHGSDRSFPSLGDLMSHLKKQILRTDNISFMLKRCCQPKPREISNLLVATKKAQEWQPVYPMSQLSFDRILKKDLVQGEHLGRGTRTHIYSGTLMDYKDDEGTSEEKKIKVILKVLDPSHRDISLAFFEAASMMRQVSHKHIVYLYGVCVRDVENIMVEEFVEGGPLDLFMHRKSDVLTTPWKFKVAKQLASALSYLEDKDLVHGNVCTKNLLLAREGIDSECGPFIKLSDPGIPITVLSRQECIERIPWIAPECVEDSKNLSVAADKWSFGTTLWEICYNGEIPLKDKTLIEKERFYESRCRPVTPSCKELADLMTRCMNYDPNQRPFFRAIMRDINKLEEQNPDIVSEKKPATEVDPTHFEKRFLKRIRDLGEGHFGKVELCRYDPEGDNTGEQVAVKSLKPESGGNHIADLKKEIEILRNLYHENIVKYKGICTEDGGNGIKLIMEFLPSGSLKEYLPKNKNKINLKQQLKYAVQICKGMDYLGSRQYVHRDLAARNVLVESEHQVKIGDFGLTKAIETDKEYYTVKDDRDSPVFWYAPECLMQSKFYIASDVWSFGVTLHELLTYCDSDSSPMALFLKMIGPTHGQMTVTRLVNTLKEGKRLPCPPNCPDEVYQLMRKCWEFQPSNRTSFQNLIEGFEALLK

SMILES	EC50 [1] [µM]	EC50 [2] [µM]	EC50 [3] [µM]
COCc1cc(-c2cn(C3COC3)c3cnc(NC(C)=O)cc23)nc([C@]2(OC)CCOC2)c1 [US20190276450, Example 4]	0.137	> 100	> 25
CO[C@@]1(c2cc(C#N)cc(-c3cn(C)c4cnc(NC(N)=O)cc34)n2)CCOC1 [US20190276450, Example 12.3]	0.094	13	> 25
CC[C@]1(c2cc(C#N)cc(-c3cn(C)c4cnc(NC(C)=O)cc34)n2)CCOC1 [US20190276450, Example 2.11]	0.104	7.5	> 25
CO[C@@]1(c2cc(C(F)F)cc(-c3cn([C@H]4C[C@H](C#N)C4)c4cnc(NC(C)=O)cc34)n2)CCOC1 [US20190276450, Example 17.2]	0.144	35	> 25
Cn1cc(-c2cncc([C@@]3(C)CCOC3)n2)c2cc(NC(N)=O)ncc21 [US20190276450, Example 1b.6]	0.195	4.2	> 25
COc1cc(-c2cn(C)c3cnc(NC(C)=O)cc23)nc([C@]2(CO)CCOC2)c1 [US20190276450, Example 22.6]	0.13	11.1	> 25
COCCOc1cc(-c2cn(C)c3cnc(NC(C)=O)cc23)nc([C@]2(CO)CCOC2)c1 [US20190276450, Example 22.8]	0.184	18.9	> 25
COC1(c2cccc(-c3cn(C)c4cnc(NC(N)=O)cc34)n2)COC1 [US20190276450, Example 1b.4]	0.142	7.6	> 25
COCc1cc(-c2cn(C)c3cnc(NC(C)=O)cc23)nc([C@]2(OC)CCOC2)c1 [US20190276450, Example 2]	0.126	> 40	> 25

These reach a lower EC50 [1]. Values come first.

EC50 [1] [µM]	EC50 [2] [µM]	EC50 [3] [µM]	SMILES
0.089	35	> 25	CO[C@@]1(c2cc(OC(F)F)cc(-c3cn(C)c4cnc(NC(C)=O)cc34)n2)CCOC1 [US20190276450, Example 22.2]
0.018	1.5	> 25	Cn1cc(-c2cncc([C@]3(C)CCOC3)n2)c2cc(NC(N)=O)ncc21 [US20190276450, Example 1b.5]
0.045	13.5	> 25	CO[C@@]1(c2cccc(-c3cn([C@@H]4CC4(F)F)c4cnc(NC(N)=O)cc34)n2)CCOC1 [US20190276450, Example 1.2]
0.014	3.4	> 25	CC[C@@]1(c2cccc(-c3cn(C)c4cnc(NC(N)=O)cc34)n2)CCOC1 [US20190276450, Example 3.2]
0.05	> 25	> 25	CO[C@@]1(c2cc(C(F)F)cc(-c3cn(C)c4cnc(NC(=O)CO)cc34)n2)CCOC1 [US20190276450, Example 26]
0.072	7.05	> 25	CC(=O)Nc1cc2c(-c3cc(C(F)F)cc([C@]4(CO)CCOC4)n3)cn(C)c2cn1 [US20190276450, Example 22.5]
0.025	49	> 25	COCCOc1cc(-c2cn(C)c3cnc(NC(C)=O)cc23)nc([C@]2(OC)CCOC2)c1 [US20190276450, Example 25]
0.039	15	> 25	COc1cc(-c2cn(C)c3cnc(NC(N)=O)cc23)nc([C@]2(OC)CCOC2)c1 [US20190276450, Example 12.6]
0.042	17	> 25	CO[C@@]1(c2cc(C(F)F)cc(-c3cn(C)c4cnc(NC(C)=O)cc34)n2)CCOC1 [US20190276450, Example 2.8]
0.091	27	> 25	CO[C@@]1(c2cc(OCCO)cc(-c3cn(C)c4cnc(NC(C)=O)cc34)n2)CCOC1 [US20190276450, Example 10]

Reference: BindingDB's records for patent US20190276450 (Abbvie, 2019)
